Results: US10328060B2, “Certain protein kinase inhibitors” (Shanghai Fochon Pharmaceutical Co., Ltd., priority 2014, dated 2019)

What was measured:
SU-DHL-6 cell = SU-DHL-6 cell proliferation assay (MTS); format: cell-based; settings: SU-DHL-6 cells, 48 h
Description: To investigate whether a compound is able to inhibit the activity of PI3K in cells, a mechanism-based assay using SU-DHL-6 cell (ATCC number: CRL 2959) was developed. In this assay, inhibition of PI3K-6 was detected by the inhibition of SUDHL-6 cells proliferation. SU-DHL-6 cells were cultured in culture flasks to 40-80% confluence in RPMI-1640 plus 10% fetal bovine serum. Cells were collected and plated onto 96-well-plates at 30000/well. Plates were incubated overnight at 37° C., with 5% CO2 to adhere. Compounds were added to the plates. Final compound concentrations were […], 123.5, 41.2, 13.7, 4.6 and 1.5 nM. Place plates at 37° C., with 5% CO2 for 48 h. After removing the medium, 20 μl MTS/100 μl medium mixture solution were added to each well and incubate the plates for exactly 2 hours. Stop the reaction by adding 25 μl 10% SDS per well. Measure absorbance at 490 nm and 650 nm (reference wavelength). IC50 was calculated using GraphPad Prism 5.0.

WSU-NHL = WSU-NHL cell viability assay (CellTiter-Glo); format: cell-based; settings: WSU-NHL cells, 48 h
Description: The cancer cell line WSU-NHL (DSMZ number: ACC 58) was maintained in RPMI-1640 medium with 10% FBS, at 37° C. in an atmosphere of 5% CO2. The tumor cells were routinely sub-cultured twice weekly by trypsin-EDTA treatment. The cells growing in an exponential growth phase were harvested, counted, and planted in 96-well plated by 5000 cells/well. After 24 hours' culture, the series diluted test articles were added into wells, then return the assay plate into the incubator and continue culture for 48 h. At the ending point of incubation, the assay plates were detected by Promega CellTiter-Glo Luminescent Cell Viability Assay Kit (Promege 7572), and the luminescence record of each well was read by the 2104 EnVision plate reader. The data were interpreted by GraphPad Prism5 software.

Row | SMILES | IC50 (SU-DHL-6 cell; Homo sapiens) | IC50 (WSU-NHL; Homo sapiens) | also measured
1 | Cc1csc2cc(C(C)Nc3ncnc4[nH]cnc34)c(-c3ccccc3)c(=O)n12 (centres unmarked) [Example 1, 7-(1-(9H-purin-6-ylamino)ethyl)-3-methyl-6-phenyl-5H-thiazolo[3,2-a]pyridin-5-one] | 36 nM | – | –
2 | CCC(Nc1ncnc2[nH]cnc12)c1cc2scc(C)n2c(=O)c1-c1ccccc1 (centres unmarked) [Example 2, 7-(1-(9H-purin-6-ylamino)propyl)-3-methyl-6-phenyl-5H-thiazolo[3,2-a]pyridin-5-one] | 60 nM | – | –
3 | CC(Nc1ncnc2[nH]cnc12)c1cc2ccccn2c(=O)c1-c1ccccc1 (centres unmarked) [Example 3, 2-(1-(9H-purin-6-ylamino)ethyl)-3-phenyl-4H-quinolizin-4-one] | 713 nM | – | –
4 | Cc1csc2cc(C(C)Nc3ncnc4[nH]cnc34)c(-c3ccc(F)cc3)c(=O)n12 (centres unmarked) [Example 5, 7-(1-((9H-purin-6-yl)amino)ethyl)-6-(4-fluorophenyl)-3-methyl-5H-thiazolo[3,2-a]pyridin-5-one] | 72 nM | – | –
5 | CCC(Nc1ncnc2[nH]cnc12)c1cc2scc(C)n2c(=O)c1-c1ccc(F)cc1 (centres unmarked) [Example 6, 7-(1-((9H-purin-6-yl)amino)propyl)-6-(4-fluorophenyl)-3-methyl-5H-thiazolo[3,2-a]pyridin-5-one] | 60 nM | – | –
6 | Cc1csc2cc(C(C)Nc3ncnc4[nH]cnc34)c(-c3ccccc3F)c(=O)n12 (centres unmarked) [Example 7, 7-(1-((9H-purin-6-yl)amino)ethyl)-6-(2-fluorophenyl)-3-methyl-5H-thiazolo[3,2-a]pyridin-5-one] | 13 nM | – | –
7 | Cc1csc2cc(C(C)Nc3ncnc4[nH]cnc34)c(-c3cccc(F)c3)c(=O)n12 (centres unmarked) [Example 8, 7-(1-((9H-purin-6-yl)amino)ethyl)-6-(3-fluorophenyl)-3-methyl-5H-thiazolo[3,2-a]pyridin-5-one] | 7.2 nM | – | –
8 | CCc1csc2cc(C(C)Nc3ncnc4[nH]cnc34)c(-c3ccccc3)c(=O)n12 (centres unmarked) [Example 9, 7-(1((9H-purin-6-yl)amino)ethyl)-3-ethyl-6-phenyl-5H-thiazolo[3,2-a]-pyridin-5-one] | 103 nM | – | –
9 | CCC(Nc1ncnc2[nH]cnc12)c1cc2scc(C)n2c(=O)c1-c1ccccc1F (stereo not drawn) [Example 10, 7-(l-((9H-purin-6-yl)amino)propyl)-6-(2-fluorophenyl)-3-methyl-5H-thiazolo[3,2-a]pyridin-5-one] | 28 nM | – | –
10 | CCC(Nc1ncnc2[nH]cnc12)c1cc2scc(C)n2c(=O)c1-c1cccc(F)c1 (centres unmarked) [Example 11, 7-(1((9H-purin-6-yl)amino)propyl)-6-(3-fluorophenyl)-3-methyl-5H-thiazolo[3,2-a]pyridin-5-one] | 12 nM | – | –
11 | CC(Nc1ncnc2[nH]cnc12)c1cc2scc(Cl)n2c(=O)c1-c1cccc(F)c1 (centres unmarked) [Example 12, 7-(1-((9H-purin-6-yl)amino)ethyl)-3-chloro-6-(3-fluorophenyl)-5H-thiazolo[3,2-a]pyridin-5-one] | 2.7 nM | 24 nM | –
12 | CCC(Nc1ncnc2[nH]cnc12)c1cc2scc(Cl)n2c(=O)c1-c1cccc(F)c1 (centres unmarked) [Example 13, 7-(1-((9H-purin-6-yl)amino)propyl)-3-chloro-6-(3-fluorophenyl)-5H-thiazolo[3,2-a]pyridin-5-one] | 7.5 nM | 36 nM | –
13 | CC(Nc1ncnc2[nH]cnc12)c1cc2scc(Cl)n2c(=O)c1-c1ccccc1 (centres unmarked) [Example 14, 7-(1-((9H-purin-6-yl)amino)ethyl)-3-chloro-6-phenyl-5H-thiazolo[3,2-a]-pyridin-5-one] | 8.5 nM | 49 nM | –
14 | CCC(Nc1ncnc2[nH]cnc12)c1cc2scc(Cl)n2c(=O)c1-c1ccccc1 (centres unmarked) [Example 15, 7-(1-((9H-purin-6-yl)amino)propyl)-3-chloro-6-phenyl-5H-thiazolol[3,2-a]-pyridin-5-one] | 44.8 nM | – | –
15 | CC(Nc1ncnc2[nH]cnc12)c1cc2scc(C(F)(F)F)n2c(=O)c1-c1cccc(F)c1 (centres unmarked) [Example 16, 7-(1-((9H-purin-6-yl)amino)ethyl)-6-(3-fluorophenyl)-3-(trifluoromethyl)-5H-thiazolo[3,2-a]pyridin-5-one] | 4.4 nM | 87 nM | –
16 | CCC(Nc1ncnc2[nH]cnc12)c1cc2scc(C(F)(F)F)n2c(=O)c1-c1cccc(F)c1 (centres unmarked) [Example 17, 7-(1-((9H-purin-6-yl)amino)propyl)-6-(3-fluorophenyl)-3-(trifluoromethyl)-5H-thiazolo[3,2-a]pyridin-5-one] | 85 nM | – | –
17 | CC(Nc1ncnc2[nH]cnc12)c1cc2scc(C(F)(F)F)n2c(=O)c1-c1ccccc1 (centres unmarked) [Example 18, 7-(1-((9H-purin-6-yl)amino)ethyl)-6-phenyl-3-(trifluoromethyl)-5H-thiazol-[3,2-a]pyridin-5-one] | – | – | IC50 (SU-DHL-6 cell): 23 nM; IC50 (WSU-NHL): 95 nM
18 | CCC(Nc1ncnc2[nH]cnc12)c1cc2scc(C(F)(F)F)n2c(=O)c1-c1ccccc1 (centres unmarked) [Example 19] | 17 nM | – | –
19 | O=c1c(-c2cccc(F)c2)c(C(Nc2ncnc3[nH]cnc23)C2CC2)cc2scc(Cl)n12 (centres unmarked) [Example 20, 7-(((9H-purin-6-yl)amino)(cyclopropyl)methyl)-3-chloro-6-(3-fluorophenyl)-5H-thiazolo[3,2-a]pyridin-5-one] | 7.8 nM | 39 nM | –
20 | O=c1c(-c2ccccc2)c(C(Nc2ncnc3[nH]cnc23)C2CC2)cc2scc(Cl)n12 (centres unmarked) [Example 21, 7-(((9H-purin-6-yl)amino)(cyclopropyl)-methyl)-3-chloro-6-phenyl-5H-thiazolo-[3,2-a]pyridin-5-one] | 27 nM | 20 nM | –
21 | O=c1c(-c2cccc(F)c2)c(C(Nc2ncnc3[nH]cnc23)C2CC2)cc2scc(C(F)(F)F)n12 (centres unmarked) [Example 22, 7-(((9H-purin-6-yl)amino)(cyclopropyl)-methyl)-6-(3-fluorophenyl)-3-(trifluoromethyl)-5H-thiazolo[3,2-a]-pyridin-5-one] | 186 nM | – | –
22 | O=c1c(-c2ccccc2)c(C(Nc2ncnc3[nH]cnc23)C2CC2)cc2scc(C(F)(F)F)n12 (centres unmarked) [Example 23, 7-(((9H-purin-6-yl)amino)(cyclopropyl)-methyl)-6-phenyl-3-(trifluoromethyl)-5H-thiazolo[3,2-a]pyridin-5-one] | 27 nM | – | –
23 | Cc1csc2cc(C(Nc3ncnc4[nH]cnc34)C3CC3)c(-c3ccccc3)c(=O)n12 (centres unmarked) [Example 24, 7-(((9H-purin-6-yl)amino)(cyclopropyl)methyl)-3-methyl-6-phenyl-5H-thiazolo[3,2-a]pyridin-5-one] | 5.7 nM | 16 nM | –
24 | Cc1csc2cc(C(Nc3ncnc4[nH]cnc34)C3CC3)c(-c3cccc(F)c3)c(=O)n12 (centres unmarked) [Example 25, 7-(((9H-purin-6-yl)amino)(cyclopropyl)methyl)-6-(3-fluorophenyl)-3-methyl-5H-thiazolo[3,2-a]pyridin-5-one] | 3.6 nM | 47 nM | –
25 | Cc1nc(N)nc(NC(C)c2cc3scc(C)n3c(=O)c2-c2ccccc2)c1C#N (centres unmarked) [Example 26, 2-amino-4-methyl-6-((1-(3-methyl-5-oxo-6-phenyl-5H-thiazolo[3,2-a]pyridin-7-yl)ethyl)amino)pyrimidine-5-carbonitrile] | – | < 9 nM | –
26 | Cc1nc(N)nc(NC(C)c2cc3scc(Cl)n3c(=O)c2-c2cccc(F)c2)c1C#N (centres unmarked) [Example 27, 2-amino-4-((1-(3-chloro-6-(3-fluorophenyl)-5-oxo-5H-thiazolo[3,2-a]pyridin-7-yl)ethyl)amino)-6-methylpyrimidine-5-carbonitrile] | – | < 9 nM | –
